ChEMBL document CHEMBL3621090, “Discovery of a novel Kv7 channel opener as a treatment for epilepsy” (Bioorg Med Chem Lett, 2015)

Legend:
[1] = Fraction unbound in rat brain by equilibrium dialysis method; format: ADME, tissue-based
[2] = Ratio of free drug level in plasma to brain in Sprague-Dawley rat at 1 mg/kg, sc administration at 30 mins; format: ADME, organism-based; details: in vivo, 0.5 h
Brain [3] = test: Fraction unbound in Sprague-Dawley rat brain at 30 mg/kg, sc administered at 30 mins by LC-MS/MS analysis; format: ADME, organism-based; details: in vivo, 0.5 h
Plasma [4] = test: Unbound plasma concentration in Sprague-Dawley rat at 10 mg/kg, sc administered at 30 mins by LC-MS/MS analysis; format: ADME, organism-based; details: in vivo, 0.5 h
[5] = molecular target: Voltage-gated potassium channel, KQT; KCNQ2(Kv7.2)/KCNQ3(Kv7.3) (Homo sapiens) (UniProt O43526+O43525); test: Activation of human Kv7.2/7.3 expressed in CHOK1 cells assessed as increase in current amplitude relative to control; format: cell-based; details: CHO-K1
[6] = molecular target: T1, Potassium voltage-gated channel subfamily KQT member 4 (Homo sapiens) (UniProt P56696); test: Activation of human Kv7.4 expressed in CHOK1 cells assessed as increase in current amplitude relative to control; format: cell-based; details: CHO-K1
T1 sequence (whole entry): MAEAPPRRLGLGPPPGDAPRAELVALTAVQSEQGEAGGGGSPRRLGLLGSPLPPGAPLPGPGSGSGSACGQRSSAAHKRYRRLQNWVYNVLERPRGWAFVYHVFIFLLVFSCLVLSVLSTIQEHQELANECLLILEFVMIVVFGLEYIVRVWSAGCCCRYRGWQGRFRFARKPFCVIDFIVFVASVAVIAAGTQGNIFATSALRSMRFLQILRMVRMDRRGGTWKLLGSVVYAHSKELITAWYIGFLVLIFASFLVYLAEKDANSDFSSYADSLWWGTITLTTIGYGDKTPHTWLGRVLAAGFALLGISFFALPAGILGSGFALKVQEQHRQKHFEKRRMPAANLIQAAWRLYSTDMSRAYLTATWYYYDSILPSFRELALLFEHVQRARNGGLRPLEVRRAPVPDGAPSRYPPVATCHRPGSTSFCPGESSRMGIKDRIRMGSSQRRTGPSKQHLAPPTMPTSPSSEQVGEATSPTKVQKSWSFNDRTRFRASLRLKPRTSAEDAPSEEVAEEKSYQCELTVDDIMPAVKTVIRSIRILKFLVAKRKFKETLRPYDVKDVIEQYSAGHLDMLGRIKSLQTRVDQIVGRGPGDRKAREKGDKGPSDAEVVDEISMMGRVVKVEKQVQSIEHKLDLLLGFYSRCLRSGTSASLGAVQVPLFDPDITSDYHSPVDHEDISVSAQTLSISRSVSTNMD

[7] = molecular target: Potassium voltage-gated channel subfamily KQT member 2/member 3 (Rattus norvegicus) (UniProt O88943+O88944); test: Activation of rat Kv7.2/7.3 expressed in CHOK1 cells assessed as increase in current amplitude relative to control; format: cell-based; details: CHO-K1
[8] = Toxicity in human THLE cells assessed as ATP depletion; format: cell-based
Brain [9] = test: Fraction unbound in Sprague-Dawley rat brain at 10 mg/kg, sc administered at 30 mins by LC-MS/MS analysis; format: ADME, organism-based; details: in vivo, 0.5 h
Brain [10] = test: Fraction unbound in Sprague-Dawley rat brain at 30 mg/kg, po administered at 60 mins by LC-MS/MS analysis; format: ADME, organism-based; details: in vivo, 1 h
Brain [11] = test: Fraction unbound in Sprague-Dawley rat brain at 3 mg/kg, po administered at 60 mins by LC-MS/MS analysis; format: ADME, organism-based; details: in vivo, 1 h
Rattus norvegicus [12] = test: Anticonvulsant activity in Sprague-Dawley rat assessed as protection against maximal electroshock-induced convulsion at 1 mg/kg, po administered 60 mins prior to application of shock via corneal electrodes relative to control; format: functional
[13] = Permeability in dog RRCK cells after 2 hrs by transwell assay; format: ADME, cell-based, Canis lupus familiaris, MDCKII-LE; details: mdck, read-out: permeability
Plasma [14] = test: Unbound plasma concentration in Sprague-Dawley rat at 1 mg/kg, po administered at 60 mins by LC-MS/MS analysis; format: ADME, organism-based; details: in vivo, 1 h
Rattus norvegicus [15] = test: Anticonvulsant activity in po dosed Sprague-Dawley rat assessed as protection against maximal electroshock-induced convulsion administered 60 mins prior to application of shock via corneal electrodes; format: functional, organism-based
Brain [16] = test: Fraction unbound in Sprague-Dawley rat brain at 1 mg/kg, sc administered at 30 mins by LC-MS/MS analysis; format: ADME, organism-based; details: in vivo, 0.5 h
[17] = molecular target: Voltage-gated potassium channel KCNQ3/KCNQ5 (Homo sapiens, UniProt O43525+Q9NR82); test: Activation of human Kv7.3/7.5 expressed in CHOK1 cells assessed as increase in current amplitude relative to control; format: cell-based; details: CHO-K1
Brain [18] = test: Fraction unbound in Sprague-Dawley rat brain at 3 mg/kg, sc administered at 30 mins by LC-MS/MS analysis; format: ADME, organism-based; details: in vivo, 0.5 h
[19] = molecular target: Voltage-gated potassium channel, IKs; KCNQ1(Kv7.1)/KCNE1(MinK) (Homo sapiens, UniProt P15382+P51787); test: Activation of human Kv7.1/KCNE1 expressed in CHOK1 cells; format: cell-based, CHO-K1
Sequence of Voltage-gated potassium channel, IKs; KCNQ1(Kv7.1)/KCNE1(MinK) (Homo sapiens, UniProt P15382+P51787) (P51787 whole entry): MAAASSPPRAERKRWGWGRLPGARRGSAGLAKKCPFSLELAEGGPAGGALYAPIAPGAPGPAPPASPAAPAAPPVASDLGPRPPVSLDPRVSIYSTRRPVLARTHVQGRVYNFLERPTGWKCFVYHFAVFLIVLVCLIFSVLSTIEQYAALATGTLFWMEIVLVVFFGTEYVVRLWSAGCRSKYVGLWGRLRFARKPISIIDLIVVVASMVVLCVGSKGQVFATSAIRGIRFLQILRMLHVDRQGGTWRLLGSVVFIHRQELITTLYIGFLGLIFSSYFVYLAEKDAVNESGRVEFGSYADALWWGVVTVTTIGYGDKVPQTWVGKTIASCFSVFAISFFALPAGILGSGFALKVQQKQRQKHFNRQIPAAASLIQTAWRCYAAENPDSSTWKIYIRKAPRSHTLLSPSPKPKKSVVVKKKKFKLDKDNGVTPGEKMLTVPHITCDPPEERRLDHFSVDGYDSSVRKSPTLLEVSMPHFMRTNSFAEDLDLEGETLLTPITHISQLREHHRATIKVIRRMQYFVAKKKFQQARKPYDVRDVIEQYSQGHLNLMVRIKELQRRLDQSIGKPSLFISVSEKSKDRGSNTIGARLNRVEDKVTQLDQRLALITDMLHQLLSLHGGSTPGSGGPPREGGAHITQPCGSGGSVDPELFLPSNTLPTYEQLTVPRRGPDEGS

Plasma [20] = test: Unbound plasma concentration in Sprague-Dawley rat at 30 mg/kg, po administered at 60 mins by LC-MS/MS analysis; format: ADME, organism-based; details: in vivo, 1 h
[21] = molecular target: Voltage-gated potassium channel, IKs; KCNQ1(Kv7.1)/KCNE1(MinK) (Homo sapiens, UniProt P51787+P15382); test: Activation of human Kv7.1/KCNE1 expressed in CHOK1 cells assessed as increase in current amplitude relative to control; format: cell-based; details: cho-k1
Sequence of Voltage-gated potassium channel, IKs; KCNQ1(Kv7.1)/KCNE1(MinK) (Homo sapiens, UniProt P51787+P15382) (P51787 whole entry): as the sequence (P51787 whole entry) above

[22] = Ratio of free drug level in plasma to brain in Sprague-Dawley rat at 10 mg/kg, po administration at 60 mins; format: ADME, organism-based; details: in vivo, 1 h
Rattus norvegicus [23] = test: Anticonvulsant activity in Sprague-Dawley rat assessed as protection against maximal electroshock-induced convulsion at 3 mg/kg, sc administered 30 mins prior to application of shock via corneal electrodes relative to control; format: functional
[24] = Ratio of free drug level in plasma to brain in Sprague-Dawley rat at 1 mg/kg, po administration at 60 mins; format: ADME, organism-based; details: in vivo, 1 h
[25] = Activation of rat Kv7.3/7.5 expressed in CHOK1 cells; format: cell-based; details: CHO-K1
Plasma [26] = test: Unbound plasma concentration in Sprague-Dawley rat at 10 mg/kg, po administered at 60 mins by LC-MS/MS analysis; format: ADME, organism-based; details: in vivo, 1 h
Brain [27] = test: Fraction unbound in Sprague-Dawley rat brain at 10 mg/kg, po administered at 60 mins by LC-MS/MS analysis; format: ADME, organism-based; details: in vivo, 1 h
Rattus norvegicus [28] = test: Anticonvulsant activity in Sprague-Dawley rat assessed as protection against maximal electroshock-induced convulsion at 10 mg/kg, po administered 60 mins prior to application of shock via corneal electrodes relative to control; format: functional
Rattus norvegicus [29] = test: Anticonvulsant activity in Sprague-Dawley rat assessed as protection against maximal electroshock-induced convulsion at 30 mg/kg, po administered 60 mins prior to application of shock via corneal electrodes relative to control; format: functional
[30] = molecular target: T2, Potassium voltage-gated channel subfamily KQT member 4 (Homo sapiens, UniProt P56696); test: Activation of human Kv7.4 expressed in CHOK1 cells; format: cell-based, CHO-K1
T2 sequence (P56696 whole entry): T1 sequence (whole entry)

[31] = Intrinsic clearance in human liver microsomes measured over 1 hr in presence of NADPH regenerating system; format: ADME; details: read-out: CLH
[32] = Ratio of free drug level in plasma to brain in Sprague-Dawley rat at 3 mg/kg, po administration at 60 mins; format: ADME, organism-based; details: in vivo, 1 h

COc1nc(N2CCC(OC)CC2)nc(OC)c1NC(=O)CC(C)(C)C
fraction unbound [1]: 0.13
Ratio [2]: 0.57
Drug uptake(free) (Brain [3]): 167 nM
Cp(f) (Plasma [4]): 211 nM
Activity [5]: 265%
Activity [6]: 163%
Activity [7]: 237%
IC50 [8]: > 300000 nM
Drug uptake(free) (Brain [9]): 125 nM
Drug uptake(free) (Brain [10]): 274 nM
Drug uptake(free) (Brain [11]): 43 nM
Activity (Rattus norvegicus [12]): 0%
Papp at 2 h [13]: 24.9 ×10⁻⁶ cm/s
Cp(f) (Plasma [14]): 15 nM
Activity (Rattus norvegicus [15]): Dose-dependent effect
Drug uptake(free) (Brain [16]): 33 nM
Activity [17]: 246%
Drug uptake(free) (Brain [18]): 90 nM
EC50 [19]: > 100000 nM
Cp(f) (Plasma [20]): 572 nM
Activity [21]: 84%
Ratio [22]: 0.37
Activity (Rattus norvegicus [23]): 100%
Ratio [24]: 0.42
EC50 [25]: 1330 nM
Cp(f) (Plasma [26]): 225 nM
Drug uptake(free) (Brain [27]): 83 nM
Activity (Rattus norvegicus [28]): 100%
Activity (Rattus norvegicus [29]): 100%
EC50 [30]: 625 nM
CLint scaled [31]: 15.6 mL/min/kg
Ratio [32]: 0.39
